Source: US20260041753A1, “RESPIRATORY SYNCYTIAL VIRUS SURFACE GL[…], CONJUGATES, AND USES THEREOF” (Dana-Farber Cancer Institute, Inc., priority 2023, published 2026)
Where two headings read alike, the source gives them in different places. Where a SMILES comes first, the peptide text is derived from it. Bridges are numbered along the chain shown (N, C = ends). Primed or numbered codes have the meaning given here. Where no end group is shown, it is not given here. Side-chain parts run from the residue outwards. [ ]: non-standard residue; d: D form. The star is where a group is joined. ξ: configuration not given here. thiocholesterol = thiocholesterol moiety attached via the PEG4 linker to the lysine epsilon side chain, CC(C)CCC[C@@H](C)[C@H]1CC[C@H]2[C@@H]3CC=C4C[C@@H](S*)CC[C@]4(C)[C@H]3CC[C@]12C; Acetyl(2-S-cholesteryl) = CC(C)CCC[C@@H](C)[C@H]1CC[C@H]2[C@@H]3CC=C4C[C@@H](SCC(=O)*)CC[C@]4(C)[C@H]3CC[C@]12C; Acetyl(2-S-3ξ-cholesteryl) = CC(C)CCC[C@@H](C)[C@H]1CC[C@H]2[C@@H]3CC=C4CC(SCC(=O)*)CC[C@]4(C)[C@H]3CC[C@]12C; PEG20 = NCCOCCOCCOCCOCCOCCOCCOCCOCCOCCOCCOCCOCCOCCOCCOCCOCCOCCOCCOCCOCCC(=O)O; PEG16 = NCCOCCOCCOCCOCCOCCOCCOCCOCCOCCOCCOCCOCCOCCOCCOCCOCCC(=O)O; PEG4′ = 4x polyethylene glycol linker; R8 = C=CCCCCCC[C@@](C)(N)C(=O)O; PEG4 = NCCOCCOCCOCCOCCC(=O)O; S5 = C=CCCC[C@](C)(N)C(=O)O

Columns and labels:
[1] = system: live human Respiratory Syncytial Virus with Green Fluorescent Protein (RSV-GFP1); format: cell-based; details: for antiviral activity in the GFP-RSV live virus assay (staple and PEG scanning): dose of 2 μM, RSV-GFP in A549 cells after 48 hours (FIG. 15); for improvement in anti-viral activity compared to the singly stapled RSV HR2 peptide of SEQ ID NO: 4: versus single staple alone with an additional 6 HR2 amino acids at the C-terminus
Protocol: Antiviral Efficacy Assays: The efficiency of the peptide-cholesterol conjugates of the invention in preventing and treating infection of live human Respiratory Syncytial Virus with Green Fluorescent Protein (RSV-GFP1) are evaluated in monolayer cell cultures. A549 cells plated in 384-well format are treated for 30 min with a serial dilution of stapled peptides (e.g. 1-5 […] or a fixed dose, e.g. […]), performed in quadruplicate, followed by addition of GFP-RSV live virus assay (0.75-1.25 μL of virus per well) and incubation for 48-72 hours. Infected cells are then washed with PBS. Hoechst 33342 (cell permeable nuclear dye) and DRAQ7 (cell impermeable nuclear dye) are added and the plate imaged on a Molecular Devices ImageXpress Micro Confocal Laser at 4× magnification. GFP (+) cells are counted and total GFP(+) cells or percent GFP(+) cells are plotted using Prism software (Graphpad). Cytotoxicity is determined by the ratio of DRAQ7 (+) Hoechst 33342 (+) to DRAQ7 (−) Hoechst 33342 (+) cells.

[2] = Solubility of stapled lipopeptides in buffer (FIG. 18); format: physicochemical; details: 15 mg/mL in 15% DMSO, PBS pH 7.4
Protocol: Buffer conditions are 15 mg/mL in 15% DMSO, PBS pH 7.4.

[3] = pI of stapled lipopeptides; format: physicochemical
[4] = GFP-RSV live virus, A549 cells, read-out at 48 hours (FIGS. 13, 16, 17), read-out: IC50, antiviral activity in live RSV virus assay

| Compound | IC50 [1, 4] | antiviral activity in the GFP-RSV live virus assay (staple and PEG scanning) [1] | improvement in anti-viral activity compared to the singly stapled RSV HR2 peptide of SEQ ID NO: 4 [1] | also measured |
| --- | --- | --- | --- | --- |
| CC[C@H](C)[C@H](NC(=O)[C@H](CO)NC(=O)[C@H](C)NC(=O)[C@H](CC(=O)O)NC(=O)[C@H](Cc1ccccc1)NC(C)=O)C(=O)N[C@@H](CO)C(=O)N[C@@H](CCC(N)=O)C(=O)N[C@H](C(=O)N[C@@H](CC(N)=O)C(=O)N[C@@H](CCC(=O)O)C(=O)N[C@@H](CCCCN)C(=O)N[C@H](C(=O)N[C@@H](CC(N)=O)C(=O)N[C@@H](CCC(N)=O)C(=O)N[C@@H](CO)C(=O)N[C@@H](CC(C)C)C(=O)N[C@]1(C)CCCCCCC=CCCC[C@@](C)(C(=O)N[C@@H](CC(C)C)C(=O)N[C@@H](CC(C)C)C(=O)N[C@@H](Cc2c[nH]cn2)C(=O)N[C@@H](CC(N)=O)C(=O)N[C@H](C(=O)N[C@@H](CCCCNC(=O)CCOCCOCCOCCOCCOCCOCCOCCOCCOCCOCCOCCOCCOCCOCCOCCOCCNC(=O)CS[C@H]2CC[C@@]3(C)C(=CC[C@H]4[C@@H]5CC[C@H]([C@H](C)CCCC(C)C)[C@@]5(C)CC[C@@H]43)C2)C(N)=O)C(C)C)NC(=O)[C@H](CC(=O)O)NC(=O)[C@H](CO)NC(=O)[C@H](CCCCN)NC(=O)[C@H](CCCNC(=N)N)NC(=O)[C@H]([C@@H](C)CC)NC(=O)[C@H](Cc2ccccc2)NC1=O)[C@@H](C)CC)C(C)C [PEG16-thiochol SEQ ID NO: 21] (Ac-FDASISQVNEKINQSL[R8]FIRKSD[S5]LLHNVK([PEG16-Acetyl(2-S-cholesteryl)])-NH2; staple 17-24) | 18 nM | – | – | – |
| FDASISQVN8KINQSLXFIRKSDELLHNV* (FDASISQVNXKINQSLXFIRKSDELLHNVK; not fully specified; Lys(epsilon-(PEG)4-thiocholesterol); non-natural residues 8, X; SITE 10 (R)-alpha-(7'-octenyl)alanine; SITE 17 (S)-alpha-(4'-pentenyl)alanine; SITE 30 Residue side chain modified at the epsilon carbon with 4x polyethylene glycol attached to thiocholesterol) [SEQ ID NO: 14] | – | potent activity | – | – |
| PEG16-thiochol SEQ IQ NO: 5: SEQ ID NO:51 with PEG(n)-thiocholesterol linked via a C-terminal lysine, n is 16 (FDXSISQVNXKINQSLAFIRKSDELLHNVK; not fully specified; C-terminal Lys-PEG16-thiocholesterol; SITE 3 (R)-alpha-(7'-octenyl)alanine; SITE 10 (S)-alpha-(4'-pentenyl)alanine; SITE 30 Residue attached to 16x polyethylene glycol thiocholesterol) | 49 nM | – | greater than two orders of magnitude | – |
| 8DASISQXNEKINQSLAFIRKSDELLHNV* ([R8]DASISQ[S5]NEKINQSLAFIRKSDELLHNVK([PEG4′-thiocholesterol]); staple 1-8) [SEQ ID NO: 6, * =Lys(epsilon-(PEG)4-thiocholesterol)] | – | potent activity | – | – |
| CC[C@H](C)[C@H](NC(=O)[C@H](CO)NC(=O)[C@H](C)NC(=O)[C@H](CC(=O)O)NC(=O)[C@H](Cc1ccccc1)NC(C)=O)C(=O)N[C@@H](CO)C(=O)N[C@@H](CCC(N)=O)C(=O)N[C@H](C(=O)N[C@@H](CC(N)=O)C(=O)N[C@@H](CCC(=O)O)C(=O)N[C@@H](CCCCN)C(=O)N[C@H](C(=O)N[C@@H](CC(N)=O)C(=O)N[C@@H](CCC(N)=O)C(=O)N[C@@H](CO)C(=O)N[C@@H](CC(C)C)C(=O)N[C@]1(C)CCCCCCC=CCCC[C@@](C)(C(=O)N[C@@H](CC(C)C)C(=O)N[C@@H](CC(C)C)C(=O)N[C@@H](Cc2c[nH]cn2)C(=O)N[C@@H](CC(N)=O)C(=O)N[C@H](C(=O)N[C@@H](CCCCNC(=O)CCOCCOCCOCCOCCNC(=O)CSC2CC[C@@]3(C)C(=CC[C@H]4[C@@H]5CC[C@H]([C@H](C)CCCC(C)C)[C@@]5(C)CC[C@@H]43)C2)C(N)=O)C(C)C)NC(=O)[C@H](CC(=O)O)NC(=O)[C@H](CO)NC(=O)[C@H](CCCCN)NC(=O)[C@H](CCCNC(=N)N)NC(=O)[C@H]([C@@H](C)CC)NC(=O)[C@H](Cc2ccccc2)NC1=O)[C@@H](C)CC)C(C)C (stereo partly drawn) [SEQ ID NO: 21, FDASISQVNEKINQSL8FIRKSDXLLHNV*] (Ac-FDASISQVNEKINQSL[R8]FIRKSD[S5]LLHNVK([PEG4-Acetyl(2-S-3ξ-cholesteryl)])-NH2; staple 17-24) | – | – | – | solubility [2]: visible pellet; solubility ([2]; listed as SEQ ID NO:21): Poor solubility |
| FDASISQVNEKINQSLAFI8KSDELLXNV* (FDASISQVNEKINQSLAFI[R8]KSDELL[S5]NVK([PEG4′-thiocholesterol]); staple 20-27 (inferred)) [SEQ ID NO: 24, * =Lys(epsilon-(PEG)4-thiocholesterol)] | – | potent activity | – | – |
| CC[C@H](C)[C@H](NC(=O)[C@H](CO)NC(=O)[C@H](C)NC(=O)[C@H](CC(=O)O)NC(=O)[C@H](Cc1ccccc1)NC(C)=O)C(=O)N[C@@H](CO)C(=O)N[C@@H](CCC(N)=O)C(=O)N[C@H](C(=O)N[C@@H](CC(N)=O)C(=O)N[C@@H](CCC(=O)O)C(=O)N[C@@H](CCCCN)C(=O)N[C@H](C(=O)N[C@@H](CC(N)=O)C(=O)N[C@@H](CCC(N)=O)C(=O)N[C@@H](CO)C(=O)N[C@@H](CC(C)C)C(=O)N[C@]1(C)CCCCCCC=CCCC[C@@](C)(C(=O)N[C@@H](CC(C)C)C(=O)N[C@@H](CC(C)C)C(=O)N[C@@H](Cc2c[nH]cn2)C(=O)N[C@@H](CC(N)=O)C(=O)N[C@H](C(=O)N[C@@H](CCCCNC(=O)CCOCCOCCOCCOCCOCCOCCOCCOCCOCCOCCOCCOCCOCCOCCOCCOCCOCCOCCOCCOCCNC(=O)CS[C@H]2CC[C@@]3(C)C(=CC[C@H]4[C@@H]5CC[C@H]([C@H](C)CCCC(C)C)[C@@]5(C)CC[C@@H]43)C2)C(N)=O)C(C)C)NC(=O)[C@H](CC(=O)O)NC(=O)[C@H](CO)NC(=O)[C@H](CCCCN)NC(=O)[C@H](CCCNC(=N)N)NC(=O)[C@H]([C@@H](C)CC)NC(=O)[C@H](Cc2ccccc2)NC1=O)[C@@H](C)CC)C(C)C [PEG20-thichol SEQ ID NO: 21] (Ac-FDASISQVNEKINQSL[R8]FIRKSD[S5]LLHNVK([PEG20-Acetyl(2-S-cholesteryl)])-NH2; staple 17-24) | 8.2 nM | – | – | – |
| CC[C@H](C)[C@H](NC(=O)[C@H](Cc1ccccc1)NC(=O)[C@H](C)NC(=O)[C@H](CC(C)C)NC(=O)[C@H](CO)NC(=O)[C@H](CCC(N)=O)NC(=O)[C@H](CC(N)=O)NC(=O)[C@@H](NC(=O)[C@H](CCCCN)NC(=O)[C@]1(C)CCCC=CCCCCCC[C@@](C)(NC(=O)[C@H](CC(=O)O)NC(=O)[C@H](Cc2ccccc2)NC(C)=O)C(=O)N[C@@H](CO)C(=O)N[C@@H]([C@@H](C)CC)C(=O)N[C@@H](CO)C(=O)N[C@@H](CCC(N)=O)C(=O)N[C@@H](C(C)C)C(=O)N[C@@H](CC(N)=O)C(=O)N1)[C@@H](C)CC)C(=O)N[C@@H](CCCNC(=N)N)C(=O)N[C@@H](CCCCN)C(=O)N[C@@H](CO)C(=O)N[C@@H](CC(=O)O)C(=O)N[C@@H](CCC(=O)O)C(=O)N[C@@H](CC(C)C)C(=O)N[C@@H](CC(C)C)C(=O)N[C@@H](Cc1c[nH]cn1)C(=O)N[C@@H](CC(N)=O)C(=O)N[C@H](C(=O)N[C@@H](CCCCNC(=O)CCOCCOCCOCCOCCNC(=O)CS[C@H]1CC[C@@]2(C)C(=CC[C@H]3[C@@H]4CC[C@H]([C@H](C)CCCC(C)C)[C@@]4(C)CC[C@@H]32)C1)C(N)=O)C(C)C [SEQ ID NO: 5, FD8SISQVNXKINQSLAFIRKSDELLHNV*] (Ac-FD[R8]SISQVN[S5]KINQSLAFIRKSDELLHNVK([PEG4-Acetyl(2-S-cholesteryl)])-NH2; staple 3-10) | 130 nM | potent activity | an order of magnitude | IC50 ([1]; live RSV virus (FIG. 13), read-out: IC50, infectivity assay using live RSV virus): 130 nM |
| PEG20-thiochol SEQ IQ NO: 5: SEQ ID NO:51 with PEG(n)-thiocholesterol linked via a C-terminal lysine, n is 20 (FDXSISQVNXKINQSLAFIRKSDELLHNVK; not fully specified; C-terminal Lys-PEG20-thiocholesterol; SITE 3 (R)-alpha-(7'-octenyl)alanine; SITE 10 (S)-alpha-(4'-pentenyl)alanine; SITE 30 Residue attached to 20x polyethylene glycol thiocholesterol) | 60 nM | – | greater than two orders of magnitude | – |
| SDEFDASISQVNEKINQSL8FIRKSDXLLHNV* (SDEFDASISQVNEKINQSL[R8]FIRKSD[S5]LLHNV; staple 20-27; also: C-terminal linker-lipid (*), exact composition not fixed) [SEQ ID NO: 281] | – | – | – | solubility [2]: fully soluble; solubility ([2]; listed as SEQ ID NO:21 with three native N-terminal residues “SDE”): complete solubility; pI [3]: 4.7 |
